Reference: PubChem BioAssay (NCI)
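GI50 = concentration required for 50% inhibition of growth. At the TGI there is no net growth.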

Legend:
Test in all cases: NCI anticancer screen, dose series, 384-well format
[1] = tested on: CCRF-CEM leukemia
[2] = tested on: KM12 colon
[3] = tested on: SK-MEL-28 melanoma
[4] = tested on: UACC-257 melanoma
[5] = tested on: MCF7 breast
[6] = tested on: NCI-H522 lung
[7] = tested on: SNB-75 CNS
[8] = tested on: HL-60(TB) leukemia
[9] = tested on: HOP-92 NSCLC
[10] = tested on: HCC-2998 colon
[11] = tested on: SNB-19 CNS
[12] = tested on: OVCAR-8 ovarian
[13] = tested on: NCI-H23 lung
[14] = tested on: CAKI-1 renal
[15] = tested on: EKVX NSCLC
[16] = tested on: HOP-62 NSCLC
[17] = tested on: A498 renal
[18] = tested on: SF-295 CNS
[19] = tested on: 786-0 renal
[20] = tested on: SF-539 CNS
[21] = tested on: RPMI-8226 leukemia
[22] = tested on: SK-MEL-5 melanoma
[23] = tested on: NCI-H226 lung
[24] = tested on: NCI/ADR-RES ovarian
[25] = tested on: SW-620 colon
[26] = tested on: MALME-3M melanoma
[27] = tested on: HCT-116 colon
[28] = tested on: LOX IMVI melanoma
[29] = tested on: HT29 colon
[30] = tested on: HS 578T breast
[31] = tested on: SF-268 CNS
[32] = tested on: OVCAR-4 ovarian
[33] = tested on: SK-OV-3 ovarian
[34] = tested on: MDA-MB-435 melanoma
[35] = tested on: TK-10 renal
[36] = tested on: SN12C renal
[37] = tested on: IGROV1 ovarian
[38] = tested on: K-562 leukemia
[39] = tested on: COLO 205 colon
[40] = tested on: RXF 393 renal
[41] = tested on: DU-145 prostate
[42] = tested on: BT-549 breast
[43] = tested on: UACC-62 melanoma
[44] = tested on: HCT-15 colon
[45] = tested on: U251 glioblastoma
[46] = tested on: M14 melanoma
[47] = tested on: NCI-H460 NSCLC
[48] = tested on: ACHN renal
[49] = tested on: MOLT-4 leukemia
[50] = tested on: A549 NSCLC
[51] = tested on: MDA-MB-468 breast
[52] = tested on: OVCAR-3 ovarian
[53] = tested on: NCI-H322M lung
[54] = tested on: PC-3 prostate
[55] = tested on: SK-MEL-2 melanoma

Q: Which results are given for `C=C(c1ccc(N(C)C)cc1)c1ccc(N(C)C)cc1`?
A: GI50 [1]: 1.35 µM; TGI [1]: 2.68 µM; GI50 [2]: 1.94 µM; TGI [2]: 55.4 µM; GI50 [3]: 2.59 µM; TGI [3]: 7.79 µM; GI50 [4]: 3.31 µM; TGI [4]: 19.7 µM; GI50 [5]: 2.16 µM; TGI [5]: 8.52 µM; GI50 [6]: 0.628 µM; TGI [6]: 2.17 µM; GI50 [7]: 1.25 µM; TGI [7]: 5.15 µM; GI50 [8]: 0.382 µM; TGI [8]: 1.87 µM; GI50 [9]: 2.45 µM; TGI [9]: 8.34 µM; GI50 [10]: 1.12 µM; TGI [10]: 4.84 µM; GI50 [11]: 2.92 µM; TGI [11]: 20.5 µM; GI50 [12]: 2.39 µM; TGI [12]: 5.17 µM; GI50 [13]: 1.75 µM; TGI [13]: 4.13 µM; GI50 [14]: 2.57 µM; TGI [14]: 22.1 µM; GI50 [15]: 3.38 µM; TGI [15]: 15.3 µM; GI50 [16]: 2.2 µM; TGI [16]: 7.98 µM; GI50 [17]: 2.1 µM; TGI [17]: 7.73 µM; GI50 [18]: 2.17 µM; TGI [18]: 5.44 µM; GI50 [19]: 2.51 µM; TGI [19]: 8.96 µM; GI50 [20]: 1.79 µM; TGI [20]: 4.12 µM; GI50 [21]: 1.51 µM; TGI [21]: 2.89 µM; GI50 [22]: 1.36 µM; TGI [22]: 3.4 µM; GI50 [23]: 4.29 µM; TGI [23]: 26.7 µM; GI50 [24]: 1.43 µM; TGI [24]: 3.12 µM; GI50 [25]: 1.15 µM; TGI [25]: 4.26 µM; GI50 [26]: 1.65 µM; TGI [26]: 6.03 µM; GI50 [27]: 2.45 µM; TGI [27]: 13.1 µM; GI50 [28]: 1.91 µM; TGI [28]: 21.1 µM; GI50 [29]: 1.87 µM; TGI [29]: 4.79 µM; GI50 [30]: 1.69 µM; TGI [30]: 3.53 µM; GI50 [31]: 3.27 µM; TGI [31]: 15 µM; GI50 [32]: 2.09 µM; TGI [32]: 9.56 µM; GI50 [33]: 2.42 µM; TGI [33]: 15.1 µM; GI50 [34]: 0.28 µM; TGI [34]: 1.06 µM; GI50 [35]: 2.25 µM; TGI [35]: 9.09 µM; GI50 [36]: 3.69 µM; TGI [36]: 72.6 µM; GI50 [37]: 2.36 µM; TGI [37]: 9.03 µM; GI50 [38]: 1.91 µM; TGI [38]: 5.35 µM; GI50 [39]: 2.78 µM; TGI [39]: 7.77 µM; GI50 [40]: 1.33 µM; TGI [40]: 3.48 µM; GI50 [41]: 2.66 µM; TGI [41]: 8.38 µM; GI50 [42]: 1.49 µM; TGI [42]: 4.15 µM; GI50 [43]: 1.52 µM; TGI [43]: 7.92 µM; GI50 [44]: 0.373 µM; TGI [44]: 10.3 µM; GI50 [45]: 3.48 µM; TGI [45]: 14.4 µM; GI50 [46]: 1.39 µM; TGI [46]: 3.16 µM; GI50 [47]: 2.28 µM; TGI [47]: 5.15 µM; GI50 [48]: 4.16 µM; TGI [48]: > 100 µM; GI50 [49]: 0.301 µM; TGI [49]: 1.22 µM; GI50 [50]: 4.11 µM; TGI [50]: 28.9 µM; GI50 [51]: 0.142 µM; TGI [51]: 0.822 µM; GI50 [52]: 1.41 µM; TGI [52]: 3.1 µM; GI50 [53]: 5.48 µM; TGI [53]: 29.1 µM; GI50 [54]: 3.1 µM; TGI [54]: 16.1 µM; GI50 [55]: 0.48 µM; TGI [55]: 1.9 µM
